These results are taken from patent publication US6639023B1, “Fluorophenyl resin compounds” (Aventis Pharmaceuticals Inc., priority 1998, dated 2003).

This assay has as its target Factor Xa (Homo sapiens, UniProt P00742). In words: IC50 against Factor Xa. The class given is biochemical.

Chain of Factor Xa (P00742 235-488 limits assumed): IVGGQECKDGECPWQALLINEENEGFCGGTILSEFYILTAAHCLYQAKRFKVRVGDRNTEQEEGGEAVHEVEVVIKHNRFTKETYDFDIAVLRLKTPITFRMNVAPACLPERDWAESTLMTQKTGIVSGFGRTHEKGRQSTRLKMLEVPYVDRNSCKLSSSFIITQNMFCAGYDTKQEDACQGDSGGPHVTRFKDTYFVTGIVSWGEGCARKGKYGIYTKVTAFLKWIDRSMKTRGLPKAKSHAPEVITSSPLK
Chain of Factor Xa (P00742 41-179 partner limits assumed): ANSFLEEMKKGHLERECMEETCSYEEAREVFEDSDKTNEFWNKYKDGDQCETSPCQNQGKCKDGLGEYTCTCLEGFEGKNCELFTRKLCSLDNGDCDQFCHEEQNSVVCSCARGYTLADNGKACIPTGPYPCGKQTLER

The IC50 is the point on the concentration scale where inhibition reaches its midpoint. Molecule `O=C1[C@@H](NS(=O)(=O)c2cc3ccc(Cl)cc3s2)CCN1Cc1cc2ncccc2[nH]1` [Example 24] displayed an IC50 of less than 500 nM.
